Laboratory results: US20150143553A1, “Methods And Compositions Comprising A Drosophila Model Of Amyotrophic Lateral Sclerosis” (priority 2013, published 2015)

Experiments:
[1] = tested on: wild-type control larvae (D42>w1118); test: Larval turning assay, wild-type control larvae; type: in vivo, Drosophila; conditions: 1 μM pioglitazone
Experimental: (§1) Next an ideal drug concentration was determined using a more sensitive and disease relevant assay that measures neuromuscular coordination, namely larval turning (see Materials and Methods for details). Larvae expressing TDPWT or TDPG298S in motor neurons (D42>TDP-43) were raised on food containing either 1, 5, 10, 25 μM pioglitazone or DMSO and assayed for their locomotor ability using larval turning assays.
(§2) Assays were performed as described herein (33, 35). Briefly, wandering third instar larvae were placed on room temperature grape juice plates, allowed to acclimate then gently turned ventral side up. The time required for larvae to flip back to dorsal side up and start moving forward was noted as the larval turning time. At least 30 larvae per genotype and condition were tested.

D42>TDPWT larvae = test: Global metabolomic profiling, D42>TDPWT larvae; type: in vivo, Drosophila; conditions: 1 μM pioglitazone
Experimental: To gain insight into the mechanism by which pioglitazone is neuroprotective, a global metabolomic approach was taken using larvae expressing TDP-43 in motor neurons (D42>TDP-43) and D42>w1118 controls raised on either 1 μM pioglitazone, DMSO or regular food. To determine specific metabolites that were restored by pioglitazone in the context of TDPWT, the metabolic profiles of D42>TDPWT larvae raised on drug food versus DMSO were compared and 111 alterations were found among a total of 572 metabolites detected in the samples. […] This led to the identification of 28 metabolites altered by both pioglitazone and TDPWT (Table 2). […] In addition, 6 metabolites further altered by pioglitazone in the same direction as that of TDP-43 were found, consistent with a potential worsening effect. Among the 28 metabolites some were also affected by DMSO alone as determined by comparing the metabolic profiles of D42>TDPWT larvae raised on DMSO and D42>TDPWT larvae raised on regular food.
D42 Gal4 virgin females were crossed with UAS TDP-43 YFP or w1118 males and raised on regular food (RF), DMSO or 1 μM Pioglitazone (PGZ) containing food. 50-60 third instar larvae (approximately 50-60 mg) were collected and flash frozen in liquid nitrogen. Samples were made in 5 replicates. Global metabolomic study was performed following standard protocols by Metabolon, INC (Durham, N.C.). Briefly, protein samples were divided into four fractions: one for analysis by UPLC-MS/MS with positive ion mode electrospray ionization, one for analysis by UPLC-MS/MS with negative ion mode electrospray ionization, one for analysis by GC-MS, and one sample was reserved for backup. Raw data was extracted, peak-identified and QC processed using Metabolon's hardware and software. Compounds were identified by comparison to library entries of purified standards or recurrent unknown entities. Peaks were quantified using area-under-the-curve. Following normalization to Bradford protein concentration data were log transformed. Missing values for a given metabolite were imputed with the minimum observed value for each compound based on the assumption that they were below the limit of instrument detection sensitivity. For studies spanning multiple days, a data normalization step was performed to correct variation resulting from instrument inter-day tuning differences.
Student's T test was used for statistical analysis of larval turning experiments and Log-rank test was used for survival analyses. For metabolomics standard statistical analyses were performed in ArrayStudio on log transformed data. For those analyses not standard in ArrayStudio, the programs R (cran.r-project.org/) or JMP (jmp.com) were used. Welch's two-sample t-test and matched pairs t-test were used to compute p-values. False discovery rates were calculated as described (69).

[2] = tested on: Drosophila larvae expressing wild-type TDP-43 in motor neurons; test: Drug screen: rescue of lethality caused by wild-type TDP-43 expression in motor neurons (D42 Gal4); type: in vivo; conditions: for Av. % rescue (number of rescued adults/total number of pupae × 100%): TDP^WT
[3] = tested on: Larvae expressing TDPWT in motor neurons; test: Larval turning assay, D42>TDPWT; type: in vivo, Drosophila; conditions: 1 μM pioglitazone in food; DMSO 14.5+/−1 sec
Experimental: (§3) Assays were performed as disclosed herein. Briefly, wandering third instar larvae were placed on a grape juice plate at room temperature. After becoming acclimated, crawling larvae were gently turned onto their backs (ventral side up) and monitored until they were able to turn back (dorsal side up) and continue their forward movement. The amount of time that it took each larva to complete this task was recorded. Twenty to thirty larvae were used per genotype. Student's t-test was performed to assess statistical significance.
as §1, §2

[4] = tested on: Drosophila larvae expressing G298S TDP-43 in motor neurons; test: Drug screen: rescue of lethality caused by G298S TDP-43 expression in motor neurons (D42 Gal4); type: in vivo; conditions: TDP^G298S
Source text: […] Larvae expressing TDP-43 (wild type or mutant, as shown) are raised on drug containing food.
[…] Larvae expressing TDP-43 (wt or mutant) were raised on drug containing food.
Using a Drosophila model of ALS based on TDP-43 that recapitulates several aspects of the disease pathophysiology (33, 35), a drug screen aimed at identifying FDA approved compounds with neuroprotective potential in vivo were designed (FIG. 37A). […] This phenotype was used to screen for drug candidates with therapeutic potential as determined by their ability to rescue pupal lethality and produce viable adults with extended wings (FIG. 37A).
Larvae expressing TDP-43 in motor neurons (D42>TDP-43) were raised on fly food containing different amounts of drug (1, 10 and 25 μM, see Materials and Methods for details) or Dimethyl Sulfoxide (DMSO) as vehicle control (FIG. 37B, C).
UAS TDP-43 males were crossed with D42-Gal4 female virgins on fly food containing either DMSO or pioglitazone. For DMSO controls, the same volume of DMSO as the corresponding drug concentration was added. Bromophenol blue was added to a final concentration of approximately 0.02% to ensure homogeneity. Crosses were made on drug food with 3 female virgins and 2 males in each vial, and were maintained at 25° C. unless noted. The parents were discarded after 5-7 days then the vials were screened for adult progeny with straight wings from day 14 to day 25. All adults were screened for TDP-43 expression by visualizing the YFP tag. Total number of pupae was counted on day 25. Percent survival was calculated using the formula (total number of straight-winged adults/total number of pupae)×100. All experiments were performed in triplicate.

[5] = tested on: Larvae expressing TDPG298S in motor neurons; test: Larval turning assay, D42>TDPG298S; type: in vivo, Drosophila; conditions: 1 μM pioglitazone in food; DMSO 25.8+/−1.8 sec
Experimental: as §3, §1, §2

ALS patients = ALS patients administered pioglitazone; cited from earlier work

Q: For CCc1ccc(CCOc2ccc(CC3SC(=O)NC3=O)cc2)nc1 (stereo not drawn) [Pioglitazone], which “effect on larval turning time in control larvae” value [1] is on record?
A: no effect

Q: What about the “metabolites altered by both pioglitazone and TDPWT” value (D42>TDPWT larvae) of the same molecule?
A: 28

Q: And the “metabolites altered in opposite direction compared to TDPWT (restoration)” value (D42>TDPWT larvae)?
A: 14

Q: What about the “metabolites further altered in the same direction as TDP-43 (worsening)” value (D42>TDPWT larvae) of the same molecule?
A: 6

Q: What about the “metabolites similarly affected by pioglitazone and TDPWT (no further change)” value (D42>TDPWT larvae) of the same molecule?
A: 8

Q: And the “saccharopine level, pioglitazone compared to DMSO” value (D42>TDPWT larvae)?
A: 0.67

Q: And the “N-acetylglutamine level, pioglitazone versus DMSO” value (D42>TDPWT larvae; Pvalue<0.05)?
A: 0.74

Q: What about the “4-hydroxybutyrate (GHB) level, pioglitazone compared to DMSO” value (D42>TDPWT larvae; Pvalue=0.04) of the same molecule?
A: 0.41

Q: And the “metabolite alterations, drug food versus DMSO” value (D42>TDPWT larvae; among a total of 572 metabolites)?
A: 111

Q: And the “pyruvate level, pioglitazone compared to DMSO” value (D42>TDPWT larvae; not significant)?
A: 0.68

Q: And the “Av. % rescue (number of rescued adults/total number of pupae × 100%)” value ([2]; PGZ 1 μM)?
A: 15.2%

Q: And the “Av. % rescue (number of rescued adults/total number of pupae × 100%)” value ([2]; PGZ 10 μM)?
A: 1.7%

Q: What about the “Av. % rescue (number of rescued adults/total number of pupae × 100%)” value ([2]; PGZ 25 μM) of the same molecule?
A: 0.8%

Q: What about the “Preliminary rescue result: adults with normal wings” value ([2]; transgene WT2, 50 μM in fly food) of the same molecule?
A: 1 Adult Normal Wings Adults

Q: And the “Rescue Effect” value ([2]; transgene wt, primary screening (50 μM), out of 15-20 pupae)?
A: 1 adults

Q: What about the larval turning time [3] of the same molecule?
A: 9.2 ± 0.7 s

Q: What about the “Av. % rescue (number of rescued adults/total number of pupae × 100%)” value ([4]; PGZ 1 μM) of the same molecule?
A: 19.4%

Q: And the “Av. % rescue (number of rescued adults/total number of pupae × 100%)” value ([4]; PGZ 10 μM)?
A: 15.0%

Q: What about the “Av. % rescue (number of rescued adults/total number of pupae × 100%)” value ([4]; PGZ 25 μM) of the same molecule?
A: 9.7%

Q: What about the larval turning time [5] of the same molecule?
A: 17.3 ± 1.1 s

Q: What about the “hazard ratio for mortality” value (ALS patients) of the same molecule?
A: increase in hazard ratio for mortality
